Values joined by “and” are separate entries in the source; they are usually repeats but may differ in a detail not shown here. Equal values may be shown once.
Biological target: T1, CB2 receptor (Homo sapiens, UniProt P34972)
T1 construct: transiently transfected with full-length human recombinant cDNA (OriGene, Rockville, MD, USA); host or cells: HEK293
Assay: Competitive [3H]-CP55,940 radioligand binding assay, CB2
Settings: Table 1; superscript a = up to solubility limit; read-out: IC50 ± SEM CB2
Protocol: (§1) HEK293 cells were collected and transiently transfected with full-length human recombinant cDNA (OriGene, Rockville, MD, USA) containing expression clones to generate separate cell lines expressing either the CB1 or CB2 receptors (50 µg/mL) using electroporation (70 ms, single pulse, 150 volts). Transfected cells were grown in a 150 cm^2 Petri dish at 37 °C. G418 antibiotic solution (800 μg/mL) was used for selection. After selection, the HEK293 cells were further cultured until single colonies were obtained. The colonies with binding ratio (%) over 80% were chosen for binding and functional assays.
(§2) Cell plasma membranes were prepared from cells with stable expression of CB1 or CB2 receptors. Cells grown to confluency were lysed and scraped in cold 50 mM Tris-HCl buffer at pH 7.4 and then centrifuged at 1000 rpm for 10 min at 4 °C. The supernatant was discarded while the pellets were resuspended in the same buffer. A Sonic Dismembrator Model 100 (Fisher Scientific, Pittsburgh, PA, USA) was used to homogenize the cell suspension for 30 s, which was then centrifuged at 3165 rpm for 10 min at 4 °C to separate the membranes and cytosolic fractions. The supernatant was saved, and the pellet underwent the suspension and homogenization process repeated two more times with the same conditions. The supernatants were combined and centrifuged at 13,650 rpm for 40 min at 4 °C. The pellet was re-suspended in cold 50 mM Tris-HCl buffer, aliquoted into 2 mL vials, and stored at −80 °C. The total membrane protein concentration was measured using a Pierce BCA Protein Assay Kit (Thermo Scientific, Rockford, IL, USA) as per the manufacturer’s protocol.
(§3) Competitive binding assays were performed with a modified rapid filtration assay described by Ma et al. (2007) and Felder et al. (1992). […] The reaction was terminated via rapid vacuum filtration with cold Tris-HCl with 0.1% BSA through a 96-well UniFilter GF/C filter precoated with 0.5% Polyethyleneimine (PEI,) to separate bound and unbound radioligand. Filter plates were dried at 50 °C for at least 30 min, then 25 μL MicroScint-20 was applied to each filter and the plates were read on a TopCount NXT HTS Microplate Scintillation Counter (PerkinElmer, Waltham, MA). Filter bound radioactivity was recorded in counts per minute (CPM).
(§4) The percent binding of the nonlabeled control to the receptor was calculated using total, specific, and nonspecific binding. […] All the experimental data were analyzed using a nonlinear regression curve fit model using GraphPad Prism 5.0 software (GraphPad Software, Inc., San Diego, CA, USA) and the Kd value was calculated. Each compound was tested in triplicate, unless stated otherwise.
(§5) Percent displacement of radioligand was determined using the following equation:(1) % displacement of radioligand=100 –(compound.CPM−nonspecific.CPM/specific.CPM ×100)
(§6) The IC50 and Ki values were calculated from a nonlinear regression curve fit model using GraphPad Prism 5.0 software (GraphPad Software, Inc., San Diego, CA, USA).

T1 sequence (P34972 whole entry): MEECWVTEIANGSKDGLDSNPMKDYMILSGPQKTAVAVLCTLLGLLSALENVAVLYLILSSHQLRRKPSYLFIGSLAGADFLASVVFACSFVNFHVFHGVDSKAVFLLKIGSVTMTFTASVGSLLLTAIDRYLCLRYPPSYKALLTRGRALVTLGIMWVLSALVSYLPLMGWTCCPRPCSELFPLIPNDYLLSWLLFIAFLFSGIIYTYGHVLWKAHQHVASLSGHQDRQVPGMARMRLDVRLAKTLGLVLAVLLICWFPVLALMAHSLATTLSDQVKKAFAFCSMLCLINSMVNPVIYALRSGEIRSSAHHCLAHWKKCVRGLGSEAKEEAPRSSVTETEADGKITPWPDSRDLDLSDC

Compound | IC50
COc1ccc2[nH]c3c(c2c1)CCN1C(=O)CN(CCc2c[nH]c4ccccc24)C(=O)[C@]31C [Compound 2] | 3.25 ± 0.5 µM
COC(=O)CC(c1ccc2c(c1)OCO2)c1oc(CSc2ccccc2)cc(=O)c1O (stereo not drawn) [Compound 12] | > 5.93 µM
CN(Cc1ccccc1)Cc1c(O)ccc2c1OC(=Cc1cn(C)c3ccccc13)C2=O [Compound 18] | 0.101 ± 0.035 µM

Same assay, conditions: Table 1 and text; read-out: Ki ± SEM CB2

Compound | Ki
COc1ccc2[nH]c3c(c2c1)CCN1C(=O)CN(CCc2c[nH]c4ccccc24)C(=O)[C@]31C [Compound 2] | 1.6 µM and 1.62 µM
COCCN1C(=O)C(O)=C(C(=O)c2ccc3c(c2)CC(C)O3)C1c1ccc(C(C)C)cc1 (stereo not drawn) [Compound 3] | 2.6 µM
COC(=O)CC(c1ccc2c(c1)OCO2)c1oc(CSc2ccccc2)cc(=O)c1O (stereo not drawn) [Compound 12] | > 2.97 µM
CN(Cc1ccccc1)Cc1c(O)ccc2c1OC(=Cc1cn(C)c3ccccc13)C2=O [Compound 18] | 0.051 ± 0.01 µM

Same assay, conditions: Table 2, analogs of compound 16; read-out: Ki ± SEM CB2

Compound | Ki
CCCCCCc1cc(-c2onc(C)c2-c2ccc(Br)cc2)c(O)cc1OC [PCB-164] | 0.156 ± 0.0173 µM

Same assay, conditions: Table 2; 10 µM

Compound | % displacement at 10 μM CB2
CCCCCCc1cc(-c2onc(C)c2-c2ccc(Br)cc2)c(O)cc1OC [PCB-164] | 97.2%

Same assay, conditions: Table S1 preliminary screening; 10 μM

Compound | % displacement at 10 μM CB2
COc1ccc2[nH]c3c(c2c1)CCN1C(=O)CN(CCc2c[nH]c4ccccc24)C(=O)[C@]31C [Compound 2] | 67.2%
COCCN1C(=O)C(O)=C(C(=O)c2ccc3c(c2)CC(C)O3)C1c1ccc(C(C)C)cc1 (stereo not drawn) [Compound 3] | 51% and > 50%
COc1cc(C)cc2oc(=O)c(CC(=O)N[C@@H](CSCc3ccccc3)C(=O)O)c(C)c12 [Compound 5] | 15.5%
Cc1cc(O)c2c(C)c(CC(=O)N[C@@H](CSCc3ccccc3)C(=O)O)c(=O)oc2c1 [Compound 6] | 26.7%
COc1ccc2[nH]c3c(c2c1)CCNC3c1c(O)n(CCc2ccccc2)c(=S)[nH]c1=O (stereo not drawn) [Compound 7] | 15.7%
O=C(COc1cc(O)c2c(=O)cc(-c3ccccc3)oc2c1)NCCCN1CCCC1=O [Compound 9] | 30.2%
COC(=O)CC(c1ccc2c(c1)OCO2)c1oc(CSc2ccccc2)cc(=O)c1O (stereo not drawn) [Compound 12] | 63% and > 50%
CN(Cc1ccccc1)Cc1c(O)ccc2c1OC(=Cc1cn(C)c3ccccc13)C2=O [Compound 18] | 61.2%

Biological target: T2, human cannabinoid type 1 receptor (Homo sapiens, UniProt P21554)
T2 construct: transiently transfected with full-length human recombinant cDNA (OriGene, Rockville, MD, USA); host or cells: HEK293
Assay: CB1 GTPγS functional assay
Type: biochemical
Settings: not given
Protocol: The CB1 GTPγS functional assays were performed as previously described with some modifications. The assays were performed in […] of 50 mM Tris-HCl, pH = 7.4, 150 mM NaCl, 9 mM MgCl2, 0.2 mM EDTA, 1.4 mg/mL essentially fatty acid free BSA, 50 pM [^35S]-GTPγS ([^35S]-guanosine 5′-(γ-thio) triphosphate (PerkinElmer, Waltham, Massachusetts)), and 30 μg of protein per well harvested from HEK293 cells stably transfected with a plasmid overexpressing the human cannabinoid type 1 receptor. […] Plates were incubated for 90 min at 37 °C with gentle agitation in 96-well microplates, harvested with a PerkinElmer FilterMate Harvester through Unifilter GF/B filter plates (prewetted for 30 min with 0.3% BSA), and then washed 10× with […] of ice-cold 50 mM TrisHCl, pH 7.4. The filter plates were dried at 50 °C for at least 30 min. The radioactivity retained on the filters was quantified by adding […] MicroScint20 per well, incubating the filter plate overnight at room temperature to allow the radioactivity to solubilize into the scintillation fluid, and counting on a TopCount NXT Microplate Scintillation counter. Percent over basal was calculated in Microsoft Excel by subtracting the mean basal control from each value obtained and then dividing by the basal specific activity (mean basal control∓mean nonspecific binding control). Dose response curves (± SEM) of percent over basal versus log of the molar concentration of unlabeled ligand(s) were generated by a nonlinear curve fit model using GraphPad Prism 5.0 software.

T2 sequence (P21554 whole entry): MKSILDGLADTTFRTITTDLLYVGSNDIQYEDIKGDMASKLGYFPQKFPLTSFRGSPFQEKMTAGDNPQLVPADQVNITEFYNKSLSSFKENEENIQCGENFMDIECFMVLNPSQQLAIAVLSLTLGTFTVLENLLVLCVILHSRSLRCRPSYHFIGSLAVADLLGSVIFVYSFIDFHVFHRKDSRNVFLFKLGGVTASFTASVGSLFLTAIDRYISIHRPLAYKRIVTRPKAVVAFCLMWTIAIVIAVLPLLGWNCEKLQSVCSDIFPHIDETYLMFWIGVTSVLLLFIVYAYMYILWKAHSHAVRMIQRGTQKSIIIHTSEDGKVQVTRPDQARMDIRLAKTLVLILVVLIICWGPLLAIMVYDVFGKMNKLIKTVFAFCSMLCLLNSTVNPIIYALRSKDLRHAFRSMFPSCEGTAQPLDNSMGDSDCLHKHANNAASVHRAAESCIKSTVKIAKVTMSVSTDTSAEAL

Compound | EC50 | Functional phenotype at CB1 in GTPγS assay
COc1ccc2[nH]c3c(c2c1)CCN1C(=O)CN(CCc2c[nH]c4ccccc24)C(=O)[C@]31C [Compound 2] | 0.759 µM | inverse agonists
COC(=O)CC(c1ccc2c(c1)OCO2)c1oc(CSc2ccccc2)cc(=O)c1O (stereo not drawn) [Compound 12] | 1.6 µM | inverse agonists

Biological target: T3, CB1 receptor (Homo sapiens, UniProt P21554)
T3 construct: transiently transfected with full-length human recombinant cDNA (OriGene, Rockville, MD, USA); host or cells: HEK293
Assay: Competitive [3H]-CP55,940 radioligand binding assay, CB1
Settings: Table 1; initial full-curve binding; superscript a = up to solubility limit; read-out: IC50 ± SEM CB1
Protocol: as §1, §2, §3, §4, §5, §6

T3 sequence (P21554 whole entry): as above

Compound | IC50
COc1ccc2[nH]c3c(c2c1)CCN1C(=O)CN(CCc2c[nH]c4ccccc24)C(=O)[C@]31C [Compound 2] | 3.2 ± 1 µM
COC(=O)CC(c1ccc2c(c1)OCO2)c1oc(CSc2ccccc2)cc(=O)c1O (stereo not drawn) [Compound 12] | > 5.3 µM
CN(Cc1ccccc1)Cc1c(O)ccc2c1OC(=Cc1cn(C)c3ccccc13)C2=O [Compound 18] | 24.6 ± 2.6 µM

Same assay, conditions: Table 1 and text; initial full-curve binding; read-out: Ki ± SEM CB1

Compound | Ki
COc1ccc2[nH]c3c(c2c1)CCN1C(=O)CN(CCc2c[nH]c4ccccc24)C(=O)[C@]31C [Compound 2] | 1.6 µM and 1.62 µM
COC(=O)CC(c1ccc2c(c1)OCO2)c1oc(CSc2ccccc2)cc(=O)c1O (stereo not drawn) [Compound 12] | > 2.6 µM
CN(Cc1ccccc1)Cc1c(O)ccc2c1OC(=Cc1cn(C)c3ccccc13)C2=O [Compound 18] | 12.3 ± 1.3 µM

Same assay, conditions: Table 2; 10 µM

Compound | % displacement at 10 μM CB1
CCCCCCc1cc(-c2onc(C)c2-c2ccc(Br)cc2)c(O)cc1OC [PCB-164] | 29.8%

Same assay, conditions: Table S1 preliminary screening; 10 μM

Compound | % displacement at 10 μM CB1
COc1ccc2[nH]c3c(c2c1)CCN1C(=O)CN(CCc2c[nH]c4ccccc24)C(=O)[C@]31C [Compound 2] | 81.8%
COCCN1C(=O)C(O)=C(C(=O)c2ccc3c(c2)CC(C)O3)C1c1ccc(C(C)C)cc1 (stereo not drawn) [Compound 3] | ~ 10%
COc1cc(C)cc2oc(=O)c(CC(=O)N[C@@H](CSCc3ccccc3)C(=O)O)c(C)c12 [Compound 5] | 14%
Cc1cc(O)c2c(C)c(CC(=O)N[C@@H](CSCc3ccccc3)C(=O)O)c(=O)oc2c1 [Compound 6] | 28%
O=C(COc1cc(O)c2c(=O)cc(-c3ccccc3)oc2c1)NCCCN1CCCC1=O [Compound 9] | 28.6%
COC(=O)CC(c1ccc2c(c1)OCO2)c1oc(CSc2ccccc2)cc(=O)c1O (stereo not drawn) [Compound 12] | 69.9% and > 50%
CN(Cc1ccccc1)Cc1c(O)ccc2c1OC(=Cc1cn(C)c3ccccc13)C2=O [Compound 18] | 69%

Same assay, conditions: curves plateaued well before 100% receptor occupancy (Figure S2)

Compound | Further binding analysis at CB1 (binding curve outcome)
COc1ccc2[nH]c3c(c2c1)CCNC3c1c(O)n(CCc2ccccc2)c(=S)[nH]c1=O (stereo not drawn) [Compound 7] | no true affinity
